The results in this text go back to patent publication US10233191B2, “Fused piperidine amides as modulators of ion channels” (Vertex Pharmaceuticals Incorporated, priority 2013, dated 2019).

The structures appear in SMILES notation. Bounds are passed on as bounds.

In general, IC50 refers to the concentration that inhibits the measured activity by half.

The assay addresses T1, NaV 1.7 (Homo sapiens, UniProt Q15858).
T1 construct: expressed in transfected cells; host or cells: HEK cells
As to the kind of experiment: E-VIPR optical membrane potential assay with electrical stimulation. Format: cell-based. The settings on record: active against one or more sodium channels; assay/subtype not specified in Table 4; read-out: IC50 Binned Activity Data. The procedure, abridged: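 HEK cells expressing human NaV1.7, loaded with CC2-DMPE/DiSBAC6(3) FRET dyes, then exposed to compounds for 20-35 min at room temperature (0.625% DMSO). Electrical stimulation applied for 9 s with 400 Hz scanning. Read-out is the background-subtracted 460/580 nm emission ratio, normalized.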

T1 sequence (Q15858 whole entry): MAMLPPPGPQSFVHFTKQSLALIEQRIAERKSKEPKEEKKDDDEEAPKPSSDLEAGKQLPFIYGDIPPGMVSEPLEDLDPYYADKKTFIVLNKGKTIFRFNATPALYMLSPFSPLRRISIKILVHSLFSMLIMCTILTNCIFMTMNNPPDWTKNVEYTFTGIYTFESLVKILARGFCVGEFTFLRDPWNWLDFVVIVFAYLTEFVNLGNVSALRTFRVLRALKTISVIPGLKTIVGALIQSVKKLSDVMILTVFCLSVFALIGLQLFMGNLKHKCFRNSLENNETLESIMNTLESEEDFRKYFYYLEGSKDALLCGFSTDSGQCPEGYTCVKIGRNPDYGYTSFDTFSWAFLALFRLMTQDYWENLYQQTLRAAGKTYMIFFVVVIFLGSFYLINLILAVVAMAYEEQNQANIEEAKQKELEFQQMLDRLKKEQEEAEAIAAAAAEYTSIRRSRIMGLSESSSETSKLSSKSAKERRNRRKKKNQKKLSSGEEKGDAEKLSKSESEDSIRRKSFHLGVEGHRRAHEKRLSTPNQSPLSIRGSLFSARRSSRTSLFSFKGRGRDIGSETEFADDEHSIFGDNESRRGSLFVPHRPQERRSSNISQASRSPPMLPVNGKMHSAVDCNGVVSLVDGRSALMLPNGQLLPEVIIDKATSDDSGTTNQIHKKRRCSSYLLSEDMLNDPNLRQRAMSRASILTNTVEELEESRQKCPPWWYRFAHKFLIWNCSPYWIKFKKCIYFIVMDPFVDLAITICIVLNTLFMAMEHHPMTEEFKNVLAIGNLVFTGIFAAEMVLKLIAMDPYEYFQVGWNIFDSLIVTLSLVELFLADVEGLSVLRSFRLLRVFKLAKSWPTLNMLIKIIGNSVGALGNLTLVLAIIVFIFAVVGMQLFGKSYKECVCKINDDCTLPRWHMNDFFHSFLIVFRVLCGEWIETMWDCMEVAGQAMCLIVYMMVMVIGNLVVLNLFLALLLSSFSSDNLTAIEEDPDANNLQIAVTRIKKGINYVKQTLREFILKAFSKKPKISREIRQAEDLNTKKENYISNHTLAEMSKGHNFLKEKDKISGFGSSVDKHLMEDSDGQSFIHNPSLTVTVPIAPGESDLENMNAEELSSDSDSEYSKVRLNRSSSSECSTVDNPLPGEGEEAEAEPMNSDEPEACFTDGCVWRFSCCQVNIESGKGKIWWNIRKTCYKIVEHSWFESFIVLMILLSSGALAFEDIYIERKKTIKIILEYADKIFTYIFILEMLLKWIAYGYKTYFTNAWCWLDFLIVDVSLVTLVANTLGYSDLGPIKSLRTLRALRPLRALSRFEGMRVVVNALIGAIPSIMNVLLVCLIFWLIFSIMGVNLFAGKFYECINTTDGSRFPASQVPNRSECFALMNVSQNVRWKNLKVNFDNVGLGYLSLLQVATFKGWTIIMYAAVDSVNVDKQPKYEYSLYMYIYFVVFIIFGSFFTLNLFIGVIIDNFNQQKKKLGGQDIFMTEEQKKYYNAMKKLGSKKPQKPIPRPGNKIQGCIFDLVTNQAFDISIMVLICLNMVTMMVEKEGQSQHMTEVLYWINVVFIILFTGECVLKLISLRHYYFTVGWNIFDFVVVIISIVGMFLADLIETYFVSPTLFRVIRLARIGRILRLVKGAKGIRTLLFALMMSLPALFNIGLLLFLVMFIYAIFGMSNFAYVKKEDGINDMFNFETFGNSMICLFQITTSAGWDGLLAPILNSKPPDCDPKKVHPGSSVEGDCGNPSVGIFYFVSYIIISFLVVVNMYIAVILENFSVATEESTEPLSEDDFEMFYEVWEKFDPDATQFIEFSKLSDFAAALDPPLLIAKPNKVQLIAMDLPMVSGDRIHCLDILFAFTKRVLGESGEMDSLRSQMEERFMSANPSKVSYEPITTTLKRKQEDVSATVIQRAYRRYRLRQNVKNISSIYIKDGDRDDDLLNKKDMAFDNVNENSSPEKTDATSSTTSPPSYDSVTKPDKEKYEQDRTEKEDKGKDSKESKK

On to `O=C(c1ccc(OCC2CC(F)(F)C2)c(Cl)c1)N1CC[C@@]2(c3ccccn3)COC2C1` (stereo partly shown) [Compound 208], for which the IC50 was at most 2000 nM.
Regarding `COc1cc(C(=O)N2CC[C@]3(c4cccc(F)c4F)OCOC3C2)ccc1O[C@H](C)C(F)(F)F` (stereo partly shown) [Compound 257], the concentration for half-maximal inhibition (IC50) was at most 2000 nM.
Next, `O=C(c1ccc(OCCOC(F)(F)F)c(Cl)c1)N1CC[C@]2(c3ccccn3)COC2C1` (stereo partly shown) [Compound 201]: at most 2000 nM; `[2H]C1([2H])OC2CN(C(=O)c3ccc(OCCOC(F)(F)F)c(Cl)c3)CC[C@]2(c2ccccn2)O1` (stereo partly shown) [Compound 304]: at most 2000 nM.
As for `COc1nc(C(=O)N2CC[C@]3(c4cccc(F)c4)OCOC3C2)ccc1OC(C)C(F)(F)C(F)F` (stereo partly shown) [Compound 234], the IC50 was at most 2000 nM.
Next, `COc1ccnc([C@]23CCN(C(=O)c4ccc(OCC5CC(F)(F)C5)c(OC)n4)CC2OCO3)c1` (stereo partly shown) [Compound 246]: at most 2000 nM.
On to `O=C(c1ccc(OCCOC(F)(F)F)c(Cl)c1)N1CC[C@]2(c3ncccc3F)OCOC2C1` (stereo partly shown) [Compound 145], for which the IC50 was at most 2000 nM.
In the case of `Cc1nc([C@]23CCN(C(=O)c4ccc(OCC(C)(C)F)c(C)c4)CC2OCO3)cs1` (stereo partly shown) [Compound 74] it was at most 2000 nM; in that of `COc1nc(C(=O)N2CC[C@]3(c4ccccc4)OCOC3C2)ccc1OCC1(C(F)(F)F)CC1` (stereo partly shown) [Compound 265], at most 2000 nM; in that of `O=C(c1ccc(OCCOCC(F)(F)F)c(Cl)c1)N1CC[C@]2(c3ccccn3)OCOC2C1` (stereo partly shown) [Compound 108], at most 2000 nM.
With `COc1nc(C(=O)N2CC[C@]3(c4cccc(F)c4F)OCOC3C2)ccc1OCC1CC(F)(F)C1` (stereo partly shown) [Compound 281], the half-maximal inhibitory concentration (IC50) is at most 2000 nM.
As for `Cc1cc(C(=O)N2CC[C@@]3(c4nccs4)OCOC3C2)ccc1OCC(C)(C)F` (stereo partly shown) [Compound 82], the IC50 was at most 2000 nM.
Next, `CC(C)COc1ccc(C(=O)N2CCC3(c4ccccc4)CC3C2)nc1` (stereo not shown) [Compound 21]: 2000 to 5000 nM.
Consider `COc1cc(C(=O)N2CC[C@]3(c4ccccc4)OCOC3C2)ccc1OCC(C)(C)O` (stereo partly shown) [Compound 42], for which the IC50 is at most 2000 nM.
Next, `CC(C)(F)COc1ccc(C(=O)N2CC[C@@]3(c4cccc(F)c4)OCOC3C2)cc1Cl` (stereo partly shown) [Compound 217]: 2000 to 5000 nM; `[2H]C1([2H])OC2CN(C(=O)c3ccc(OCCOC(F)(F)F)c(OC)c3)CC[C@]2(c2cc(F)cc(F)c2)O1` (stereo partly shown) [Compound 174]: at most 2000 nM; `COc1cc(C(=O)N2CC[C@]3(c4nccs4)OCOC3C2)ccc1OCCOC(F)(F)F` (stereo partly shown) [Compound 85]: at most 2000 nM.
Next, `COc1cc(C(=O)N2CC[C@]3(c4cccc(Cl)c4)OCOC3C2)ccc1OCCC(F)(F)F` (stereo partly shown) [Compound 131]: at most 2000 nM.
With `COc1cc(C(=O)N2CC[C@]3(c4cc(C(F)(F)F)ccn4)OCOC3C2)ccc1OCC1CCC(F)(F)C1` (stereo partly shown) [Compound 204], the IC50 was at most 2000 nM.
As to `COc1cc(C(=O)N2CC[C@]3(c4cccc(C(F)(F)F)n4)OCOC3C2)ccc1OC(C)C(F)(F)F` (stereo partly shown) [Compound 273], the IC50 was at most 2000 nM.
In the case of `COc1cc(C(=O)N2CC[C@]3(c4cccc(C)n4)OCOC3C2)ccc1OCCOC(F)(F)F` (stereo partly shown) [Compound 154] it was at most 2000 nM; in that of `COc1cc(C(=O)N2CC[C@@]3(c4nccs4)OCOC3C2)ccc1OCCOC(F)(F)F` (stereo partly shown) [Compound 86], at most 2000 nM; in that of `COc1cc(C(=O)N2CCC3(c4ccc(F)cc4)CC3C2)ccc1OC(C)C(F)(F)F` (stereo not shown) [Compound 297], over 5000 nM.
On to `COc1ccnc([C@]23CCN(C(=O)c4ccc(OCCOC(F)(F)F)c(Cl)c4)CC2OCO3)c1` (stereo partly shown) [Compound 245], for which the IC50 was at most 2000 nM.
Next, `Cc1cccc([C@]23CCN(C(=O)c4ccc(OCCOC(F)(F)F)c(C)c4)CC2OCO3)n1` (stereo partly shown) [Compound 194]: at most 2000 nM; `COc1cc(C(=O)N2CC[C@]3(c4ccccc4)OCOC3C2)ccc1OCC1CC(F)(F)C1` (stereo partly shown) [Compound 139]: at most 2000 nM.
In the case of `COc1cc(C(=O)N2CC[C@]3(c4cccc(C(F)(F)F)n4)OCOC3C2)ccc1OCCC(F)(F)F` (stereo partly shown) [Compound 274] it was at most 2000 nM; in that of `[2H]C1([2H])OC2CN(C(=O)c3ccc(OCC4CC(F)(F)C4)c(OC)n3)CC[C@]2(c2cc(F)cc(F)c2)O1` (stereo partly shown) [Compound 280], at most 2000 nM; in that of `COc1cc(C(=O)N2CC[C@]3(c4cccc(Cl)c4)OCOC3C2)ccc1OCCOC(F)(F)F` (stereo partly shown) [Compound 283], at most 2000 nM.
In the case of `COc1cc(C(=O)N2CC[C@]3(c4cccc(Cl)c4)OCOC3C2)ccc1OCC1CC(F)(F)C1` (stereo partly shown) [Compound 176] it was at most 2000 nM; in that of `[2H]C1([2H])OC2CN(C(=O)c3ccc(OCCOC(F)(F)F)c(OC)c3)CC[C@]2(c2cccc(F)c2)O1` (stereo partly shown) [Compound 181], at most 2000 nM.
In the case of `COc1cc(C(=O)N2CC[C@]3(c4ccccn4)OCOC3C2)ccc1OCC1CC(F)(F)C1` (stereo partly shown) [Compound 90], the IC50 is at most 2000 nM.
`COc1nc(C(=O)N2CC[C@]3(c4cccc(F)c4)OCOC3C2)ccc1OCC1CC(F)(F)C1(F)F` (stereo partly shown) [Compound 254]: the IC50 is at most 2000 nM.
With `COc1cc(C(=O)N2CC[C@]3(c4cc(C(F)(F)F)ccn4)OCOC3C2)ccc1OCC1CC(F)(F)C1` (stereo partly shown) [Compound 226], the half-maximal inhibitory concentration (IC50) is at most 2000 nM.
Consider `CC(C)(F)COc1ccc(C(=O)N2CC[C@@]3(c4cccc(F)c4)OCOC3C2)cc1C(F)(F)F` (stereo partly shown) [Compound 219], for which the IC50 was over 5000 nM.
Regarding `CC(Oc1ccc(C(=O)N2CC[C@]3(c4ccccn4)OCOC3C2)cc1C(F)(F)F)C(F)(F)F` (stereo partly shown) [Compound 311], the IC50 was at most 2000 nM.
As for `Cc1cc(C(=O)N2CC[C@]3(c4ccccc4)OCOC3C2)ccc1C(C)(C)O` (stereo partly shown) [Compound 45], the IC50 was at most 2000 nM.
In the case of `O=C(c1ccc(OCCOC(F)(F)F)c(Cl)c1)N1CC[C@@]2(c3ccccn3)C(C1)C2(F)F` (stereo partly shown) [Compound 247] it was at most 2000 nM; in that of `[2H]C1([2H])OC2CN(C(=O)c3ccc(OCC4CC(F)(F)C4)c(OC)c3)CC[C@]2(c2cc(F)cc(F)c2)O1` (stereo partly shown) [Compound 172], at most 2000 nM; in that of `COc1cc(C(=O)N2CC[C@]3(c4ccccn4)CC3C2)ccc1OCCOC(F)(F)F` (stereo partly shown) [Compound 101], at most 2000 nM.
Next, `O=C(c1cc2n(n1)C(C(F)(F)F)CC(C1CC1)N2)N1CCC2(c3ccccc3)CC2C1` (stereo not shown) [Compound 119]: at most 2000 nM; `COc1cc(C(=O)N2CC[C@]3(c4cccc(OCC(C)C)n4)OCOC3C2)ccc1OCCOC(F)(F)F` (stereo partly shown) [Compound 314]: at most 2000 nM; `COc1cc(C(=O)N2CC[C@]3(c4cc(F)ccc4F)OCOC3C2)ccc1OCCC(F)(F)F` (stereo partly shown) [Compound 287]: at most 2000 nM.
Turning to `COc1nc(C(=O)N2CCC3(c4ccc(F)cc4)CC3C2)ccc1OCCOC(F)(F)F` (stereo not shown) [Compound 299], the IC50 is at most 2000 nM.
Take `COc1cc(C(=O)N2CC[C@@]3(c4csc(C)n4)OCOC3C2)ccc1OCCOC(F)(F)F` (stereo partly shown) [Compound 78]: the IC50 was at most 2000 nM.
Next, `O=C(c1ccc(OCCOC(F)(F)F)c(Cl)c1)N1CC[C@]2(c3ccccn3)OCOC2C1` (stereo partly shown) [Compound 157]: at most 2000 nM.
